Read-outs that look alike come from different tables or passages of the source.
Experiments:
CDK1/Cyclin B = target: T1, CDK1/Cyclin B (Homo sapiens, UniProt P06493); assay: Enzymatic assay for CDK1 (FRET based LANCE Ultra kinase assay); format: biochemical
T1 construct: purchased Invitrogen PR4768C
Method in brief: (§1)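 TR-FRET (LANCE Ultra) kinase assay at ATP Km, ULight-MBP peptide substrate (68 nM), 8-dose 4-fold compound series in DMSO. Enzymes: […]; 60 min at 23° C., stopped with EDTA plus Eu-anti-phospho-MBP antibody, read 665/615 nm after 60 min.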

CDK2/Cyclin A = target: T2, CDK2/Cyclin A (Homo sapiens, UniProt P24941); assay: Enzymatic assay for CDK2 (FRET based LANCE Ultra kinase assay); format: biochemical
T2 construct: purchased Invitrogen PV6290
Method in brief: as §1

MV4-11 = assay: Cellular MV4-11 viability assay (CellTiter-Glo, 72 hours); format: cell-based; details: Homo sapiens
Method in brief: (§2)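 Luminescent ATP read-out (CellTiter-Glo) after 72 h compound exposure at 37 °C/5% CO2; duplicate wells; vehicle control DMSO <0.1% final; seeding density set per cell line.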

H460 = assay: Cellular H460 viability assay (CellTiter-Glo, 72 hours); format: cell-based; details: Homo sapiens, NCI-H460
Method in brief: as §2

CDK5/p25 = target: T3, CDK5/p25 (Homo sapiens, UniProt Q00535); assay: Enzymatic assay for CDK5 (FRET based LANCE Ultra kinase assay); format: biochemical
T3 construct: purchased Invitrogen PR8543B
T3 sequence (Q00535 whole entry): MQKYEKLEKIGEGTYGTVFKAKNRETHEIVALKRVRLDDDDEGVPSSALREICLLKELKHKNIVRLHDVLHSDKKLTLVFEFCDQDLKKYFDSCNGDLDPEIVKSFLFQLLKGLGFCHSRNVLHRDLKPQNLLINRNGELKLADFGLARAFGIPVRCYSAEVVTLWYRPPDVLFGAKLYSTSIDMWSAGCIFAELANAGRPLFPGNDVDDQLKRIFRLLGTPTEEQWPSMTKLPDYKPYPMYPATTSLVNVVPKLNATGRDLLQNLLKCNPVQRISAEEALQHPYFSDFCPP
T3 sequence (Q15078 99-307 partner limits assumed): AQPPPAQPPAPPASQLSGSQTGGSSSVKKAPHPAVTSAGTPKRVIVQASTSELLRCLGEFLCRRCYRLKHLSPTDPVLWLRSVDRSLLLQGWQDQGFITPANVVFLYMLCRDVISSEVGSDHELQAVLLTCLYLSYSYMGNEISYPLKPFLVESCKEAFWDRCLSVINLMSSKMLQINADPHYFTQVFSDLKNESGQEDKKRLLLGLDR
Method in brief: as §1

A2780 = assay: Cellular A2780 viability assay (CellTiter-Glo, 72 hours); format: cell-based; details: Homo sapiens
Method in brief: (§3)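 Compound exposure lasted 72 h at 37° C, 5% CO2, over 0.0015–10 uM, DMSO kept under 0.1%, with dosing 24 h after seeding. Seeding: A2780 1×10^3, OVCAR-3 5×10^3, MM.1S 1×10^4 cells/well in 10% FBS RPMI-1640. Duplicate CellTiter-Glo luminescence readout.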

OVCAR-3 = assay: Cellular OVCAR-3 viability assay (CellTiter-Glo, 72 hours); format: cell-based; details: Homo sapiens
Excerpt: Human T-cell acute lymphoblastic leukemia cell line, MOLT-4 (ATCC, Cat #CRL-1582), Human multiple myeloma cell line, RPMI-8226 (Invitrogen, Cat #22400-089) and MM.1S (ATCC, Cat #CRL-2974), NSCLC (Non-small cell lung cancer) cell line H460 (ATCC, Cat #HTB-177), Human colon colorectal carcinoma cell line HCT116 (ATCC, Cat #CCL-247), Human acute monocytic leukemia cell line MV4-11 (ATCC, Cat #CRL-9591), OVCAR-3 (ATCC, Cat #HTB-161) and A2780 (ECACC, Cat #93112519) were obtained from ATCC. Cells were grown in RPMI-1640 media (Invitrogen, Cat #22400-089) supplemented with 10% FBS (Invitrogen, Cat #10099141) and 1% penicillin/streptomycin (Invitrogen, Cat #15070063) and cultured at 37° C., 5% CO2 in a humidified chamber. All cell lines were routinely tested for mycoplasma.
The effect of the CDK7 inhibitor to inhibit the growth of target cancer cells was evaluated through the 72 hours time period of viability assay. Briefly, the candidate cell line ware plated in 96 well plate at the following density of cells respectively. 1×10^4 cells/well for MOLT-4, RPMI-8226, MV4-11 and MM.1S, 5×10^3 for H460, HCT116 and OVCAR-3 and IX 10^3 for A2780. After 24 hours, the cells were treated with various concentrations of the compound (ranging from 0.0015 uM to 10 uM). DMSO solvent without compound served as a control and final DMSO concentration less than 0.1%. After 72 hours of incubation at 37° C., 5% CO2 incubator, cells were analyzed for the viability using the CellTiter-Glo Luminescent Cell Viability Assay (Promega, Cat #G7570). All viability assays were performed in duplicate and Luminescence was read using an Envision (Perkin Elmer, USA). Data was analyzed using XLfit software.

CDK7/Cyclin H/MNAT1 = target: T4, CDK7/Cyclin H/MNAT1 (Homo sapiens, UniProt P50613); assay: Enzymatic assay for CDK7 (FRET based LANCE Ultra kinase assay); format: biochemical
T4 construct: purchased Invitrogen PR6749B
T4 sequence (P50613 whole entry): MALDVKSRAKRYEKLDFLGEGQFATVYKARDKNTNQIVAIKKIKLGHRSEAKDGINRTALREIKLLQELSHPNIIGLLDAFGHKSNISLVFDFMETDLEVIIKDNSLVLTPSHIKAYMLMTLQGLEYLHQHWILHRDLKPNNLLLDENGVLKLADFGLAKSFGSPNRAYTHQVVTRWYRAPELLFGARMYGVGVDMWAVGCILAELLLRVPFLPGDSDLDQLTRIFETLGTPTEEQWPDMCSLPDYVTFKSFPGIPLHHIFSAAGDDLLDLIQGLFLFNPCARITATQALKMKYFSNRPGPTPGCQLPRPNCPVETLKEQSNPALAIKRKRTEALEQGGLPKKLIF
T4 sequence (P51946 whole entry partner): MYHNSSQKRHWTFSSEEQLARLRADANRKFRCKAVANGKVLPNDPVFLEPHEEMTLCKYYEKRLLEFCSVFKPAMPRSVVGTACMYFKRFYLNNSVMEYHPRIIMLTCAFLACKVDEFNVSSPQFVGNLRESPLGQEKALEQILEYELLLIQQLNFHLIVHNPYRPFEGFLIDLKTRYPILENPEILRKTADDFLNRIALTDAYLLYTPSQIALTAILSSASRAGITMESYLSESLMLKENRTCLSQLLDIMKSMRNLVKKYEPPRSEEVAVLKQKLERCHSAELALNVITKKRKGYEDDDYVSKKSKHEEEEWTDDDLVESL
T4 sequence (P51948 whole entry partner): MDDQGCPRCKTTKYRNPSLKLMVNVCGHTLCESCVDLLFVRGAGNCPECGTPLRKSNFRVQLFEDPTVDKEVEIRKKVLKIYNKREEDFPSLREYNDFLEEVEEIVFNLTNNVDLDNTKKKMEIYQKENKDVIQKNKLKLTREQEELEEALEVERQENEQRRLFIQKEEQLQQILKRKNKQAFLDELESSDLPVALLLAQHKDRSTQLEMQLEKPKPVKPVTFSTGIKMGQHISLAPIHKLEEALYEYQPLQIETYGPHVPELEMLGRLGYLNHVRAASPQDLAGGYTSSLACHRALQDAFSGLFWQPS
Method in brief: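 Inhibition was measured at Km ATP by time-resolved FRET between a Eu anti-phospho antibody and a phosphorylated ULight peptide. The enzyme was the purified CDK7/cyclin complex, and data were curve-fitted.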

HCT116 = assay: Cellular HCT116 viability assay (CellTiter-Glo, 72 hours); format: cell-based; details: Homo sapiens, HCT-116
Method in brief: as §2

RPMI-8226 = assay: Cellular RPMI-8226 viability assay (CellTiter-Glo, 72 hours); format: cell-based; details: Homo sapiens
Method in brief: as §2

MM.1S = assay: Cellular MM.1S viability assay (CellTiter-Glo, 72 hours); format: cell-based; details: Homo sapiens, MM1.S
Method in brief: as §3

MOLT-4 = assay: Cellular MOLT-4 viability assay (CellTiter-Glo, 72 hours); format: cell-based; details: Homo sapiens, MOLT4 viability assay
Method in brief: as §2

[1] = read-out: CDK1 enzymatic activity (IC50 activity range)
[2] = read-out: CDK2 enzymatic activity (IC50 activity range)
[3] = read-out: CDK5 enzymatic activity (IC50 activity range)
[4] = read-out: CDK7 enzymatic activity (IC50 activity range)
[5] = read-out: CDK1 enzymatic activity (IC50 range)
[6] = read-out: CDK2 enzymatic activity (IC50 range)
[7] = read-out: CDK5 enzymatic activity (IC50 range)
[8] = read-out: CDK7 enzymatic activity (IC50 range)

T1 sequence (P06493 whole entry): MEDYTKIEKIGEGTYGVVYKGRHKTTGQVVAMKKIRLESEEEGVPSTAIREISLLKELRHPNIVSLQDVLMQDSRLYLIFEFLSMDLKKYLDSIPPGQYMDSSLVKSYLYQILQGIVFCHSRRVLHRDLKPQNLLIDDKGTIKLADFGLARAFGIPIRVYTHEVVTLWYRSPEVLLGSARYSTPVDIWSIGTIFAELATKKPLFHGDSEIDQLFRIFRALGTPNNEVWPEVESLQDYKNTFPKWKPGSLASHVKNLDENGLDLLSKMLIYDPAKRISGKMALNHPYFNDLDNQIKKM
T1 sequence (P14635 whole entry partner): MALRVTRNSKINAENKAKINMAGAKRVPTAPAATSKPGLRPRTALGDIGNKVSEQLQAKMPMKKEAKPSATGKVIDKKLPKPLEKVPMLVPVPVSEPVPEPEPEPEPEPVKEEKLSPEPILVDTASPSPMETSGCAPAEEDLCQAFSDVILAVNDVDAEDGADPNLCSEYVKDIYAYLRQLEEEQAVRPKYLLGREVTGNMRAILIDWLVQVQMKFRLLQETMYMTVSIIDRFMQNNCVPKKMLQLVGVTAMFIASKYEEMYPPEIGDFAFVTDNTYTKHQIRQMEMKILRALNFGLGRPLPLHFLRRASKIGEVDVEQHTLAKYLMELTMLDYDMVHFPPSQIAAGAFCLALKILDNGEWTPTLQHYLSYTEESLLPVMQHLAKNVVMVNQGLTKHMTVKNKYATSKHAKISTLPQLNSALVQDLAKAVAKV

Row | Compound | IC50 (CDK1/Cyclin B; [1]) [µM] | IC50 (CDK2/Cyclin A; [2]) [µM] | IC50 (MV4-11) [µM] | IC50 (H460) [µM] | IC50 (CDK5/p25; [3]) [µM] | IC50 (A2780) [µM] | IC50 (OVCAR-3) [µM] | CDK1/CDK7: Selectivity of CDK7 inhibition over CDK1 inhibition (CDK7/Cyclin H/MNAT1; CDK1/CDK7) | CDK2/CDK7: Selectivity of CDK7 inhibition over CDK2 inhibition (CDK7/Cyclin H/MNAT1; CDK2/CDK7) | CDK5/CDK7: Selectivity of CDK7 inhibition over CDK5 inhibition (CDK7/Cyclin H/MNAT1; CDK5/CDK7) | IC50 (CDK7/Cyclin H/MNAT1; [4]) [µM] | IC50 (CDK1/Cyclin B; [5]) [µM] | IC50 (HCT116) [µM] | IC50 (RPMI-8226) [µM] | IC50 (CDK2/Cyclin A; [6]) [µM] | IC50 (CDK5/p25; [7]) [µM] | CDK1/CDK7: Selectivity of CDK7 inhibition over CDK1 inhibition (CDK7/Cyclin H/MNAT1; CDK7 over CDK1) | CDK2/CDK7: Selectivity of CDK7 inhibition over CDK2 inhibition (CDK7/Cyclin H/MNAT1; CDK7 over CDK2) | CDK5/CDK7: Selectivity of CDK7 inhibition over CDK5 inhibition (CDK7/Cyclin H/MNAT1; CDK7 over CDK5) | IC50 (CDK7/Cyclin H/MNAT1; [8]) [µM] | also measured
1 | CC(C)c1cnn2c(NCc3ccccc3-c3ccc4ccccc4n3)nc(N[C@H]3CC[C@@H](O)CC3)nc12 [Compound 265] | > 1 | > 1 | 1 to 10 | < 1 | > 1 | ≤ 1 | 1 to 10 | A (A=greater than 200 fold) | A (A=greater than 200 fold) | A (A=greater than 200 fold) | < 0.1 |  |  |  |  |  |  |  |  |  | 
2 | CC(C)c1cnn2c(NCc3c(Cl)cccc3-n3ccc(C(C)(C)O)n3)nc(Nc3cc[nH]c3)nc12 [Compound 277] | > 1 | > 1 |  |  | > 1 | > 10 | > 10 | C (C=less than 20 fold) | C (C=less than 20 fold) | C (C=less than 20 fold) | > 1 |  |  |  |  |  |  |  |  |  | 
3 | CC(C)c1cnn2c(NCc3ccccc3-c3ccc4ccccc4n3)nc(NCC[C@@H](O)CN)nc12 [Compound 251] | > 1 | > 1 | < 1 | < 1 | > 1 | ≤ 1 | 1 to 10 | A (A=greater than 200 fold) | A (A=greater than 200 fold) | A (A=greater than 200 fold) | < 0.1 |  |  |  |  |  |  |  |  |  | 
4 | CC(C)c1cnn2c(NCc3ccccc3-c3cc4ccccc4[nH]3)nc(N3CCC(N)CC3)nc12 [Compound 102] |  |  | < 1 | < 1 |  | ≤ 1 |  |  |  |  |  | 0.1 to 1 | < 1 | < 1 | 0.1 to 1 | < 0.1 | B (B=less than 200 fold, but greater than 20 fold) | B (B=less than 200 fold, but greater than 20 fold) | C (C=less than 20 fold) | < 0.1 | IC50 (MM.1S): ≤ 1 µM
5 | CC(C)c1cnn2c(NCc3ccccc3-c3ccc4ccccc4n3)nc(N3CCC(O)(CN)CC3)nc12 [Compound 219] |  |  | < 1 | < 1 |  | ≤ 1 | 1 to 10 |  |  |  |  | > 1 | < 1 |  | > 1 | > 1 | A (A=greater than 200 fold) | A (A=greater than 200 fold) | A (A=greater than 200 fold) | < 0.1 | 
6 | CC(C)c1cnn2c(NCc3ccccc3-n3cc4ccccc4n3)nc(N3CCC(N)CC3)nc12 [Compound 72] |  |  | < 1 | < 1 |  |  |  |  |  |  |  | 0.1 to 1 | < 1 | < 1 | 0.1 to 1 | 0.1 to 1 | A (A=greater than 200 fold) | B (B=less than 200 fold, but greater than 20 fold) | B (B=less than 200 fold, but greater than 20 fold) | < 0.1 | IC50 (MOLT-4): < 1 µM; IC50 (MM.1S): ≤ 1 µM
7 | CC(C)c1cnn2c(NCc3ccccc3-c3ccc4ccccc4n3)nc(N[C@H]3CC[C@H](O)CC3)nc12 [Compound 266] | > 1 | > 1 | 1 to 10 | < 1 | > 1 | ≤ 1 | ≤ 1 | A (A=greater than 200 fold) | A (A=greater than 200 fold) | A (A=greater than 200 fold) | < 0.1 |  |  |  |  |  |  |  |  |  | 
8 | Cc1cccc(-n2cccn2)c1CNc1nc(N2CCC(N)CC2)nc2c(C(C)C)cnn12 [Compound 43] |  |  | < 1 | < 1 |  |  |  |  |  |  |  | > 1 | < 1 | 1 to 10 | > 1 | > 1 | A (A=greater than 200 fold) | A (A=greater than 200 fold) | A (A=greater than 200 fold) | < 0.1 | IC50 (MOLT-4): 1 to 10 µM; IC50 (MM.1S): 1 to 10 µM
9 | CC(C)c1cnn2c(NCc3ccccc3-c3nccc4cc(NC(=O)CCCN(C)C)ccc34)nc(NC[C@H]3CCNC[C@@H]3O)nc12 [Compound 278] | > 1 | > 1 |  |  | > 1 | 1 to 10 | > 10 | A (A=greater than 200 fold) | A (A=greater than 200 fold) | A (A=greater than 200 fold) | < 0.1 |  |  |  |  |  |  |  |  |  | 
10 | CC(C)c1cnn2c(NCc3ccccc3-n3cc4cc(F)ccc4n3)nc(N3CCC(N)CC3)nc12 [Compound 108] |  |  | < 1 | < 1 |  |  |  |  |  |  |  | 0.1 to 1 | < 1 | < 1 | 0.1 to 1 | 0.1 to 1 | B (B=less than 200 fold, but greater than 20 fold) | B (B=less than 200 fold, but greater than 20 fold) | B (B=less than 200 fold, but greater than 20 fold) | < 0.1 | IC50 (MOLT-4): 1 to 10 µM; IC50 (MM.1S): ≤ 1 µM
11 | CC(C)c1cnn2c(NCc3ccccc3-c3ccc4ccccc4n3)nc(N3CCNC[C@H]3CO)nc12 [Compound 271] | > 1 | > 1 | < 1 | < 1 | > 1 | ≤ 1 | ≤ 1 | A (A=greater than 200 fold) | A (A=greater than 200 fold) | A (A=greater than 200 fold) | < 0.1 |  |  |  |  |  |  |  |  |  | 
12 | CC(C)c1cnn2c(NCc3ccccc3-c3nccc4ccccc34)nc(NC[C@H]3CCNC[C@@H]3O)nc12 [Compound 279] | > 1 | > 1 |  |  | > 1 | ≤ 1 | 1 to 10 | B (B=less than 200 fold, but greater than 20 fold) | B (B=less than 200 fold, but greater than 20 fold) | B (B=less than 200 fold, but greater than 20 fold) | 0.1 to 1 |  |  |  |  |  |  |  |  |  | 
